Measured values taken from the NIST ThermoML archive (doi:10.1016/j.jct.2012.10.025).

Details: Liquid; for speed of sound: Pulse-echo method; for mass density: Vibrating tube method

CCCCCCCCCCC [undecane]
Details	mass density, 1000 kPa [kg/m3]	mass density, 20000 kPa [kg/m3]	mass density, 40000 kPa [kg/m3]	mass density, 60000 kPa [kg/m3]	speed of sound, 1000 kPa [m/s]	speed of sound, 20000 kPa [m/s]	speed of sound, 40000 kPa [m/s]	speed of sound, 60000 kPa [m/s]	speed of sound, 80000 kPa [m/s]	speed of sound, 100000 kPa [m/s]
278 K	752.64	764.19	775.36	785.14	1355.2	1455.4	1547.8	1629.3	1702.6	1770.5
288 K	745.18	757.29	768.82	778.9	1315	1419.1	1514.4	1598	1673	1742.4
298 K	737.58	750.5	762.53	773.01	1275.2	1383.2	1481.3	1566.9	1643.4	1714.4
308 K	729.86	743.8	756.47	767.47	1236.3	1348.6	1449.8	1537.3	1615.1	1687.2
318 K	722.02	737.19	750.63	762.26	1197.9	1314.1	1418.4	1508.1	1587.7	1661.4
